Literature values as cited in US20170259275A1, “PROCESS FOR SEPARATING AMINO AND/OR ORGANIC ACID-CONTAINING PARTICLES FROM A MIXTURE” (Sanovations B.V., priority 2014, published 2017).

Key:
[1] = solid, crystalline form
[2] = 25° C., water

For `O=C(O)[C@@H]1CCCN1` [Proline], the “Crystal Density” value [1] is listed as 1.376 g/mL.
In the case of `N[C@@H](Cc1c[nH]c2ccccc12)C(=O)O` [Tryptophan], the “Aqueous Solubility” value [2] is given as 1.136 g/100 g and the “Crystal Density” value [1] is given as 1.303 g/mL.
For `CC[C@H](C)[C@H](N)C(=O)O` [Isoleucine], the “Aqueous Solubility” value [2] is listed as 4.117 g/100 g and the “Crystal Density” value [1] is listed as 1.201 g/mL.
For `NCCCC[C@H](N)C(=O)O` [Lysine], the “Aqueous Solubility” value [2] is listed as 30 g/100 g and the “Crystal Density” value [1] is listed as 1.237 g/mL.
In the case of `CSCC[C@H](N)C(=O)O` [Methionine], the “Aqueous Solubility” value [2] is given as 3.381 g/100 g and the “Crystal Density” value [1] is given as 1.311 g/mL.
For `C[C@H](N)C(=O)O` [Alanine], the “Aqueous Solubility” value [2] is listed as 16.65 g/100 g and the “Crystal Density” value [1] is listed as 1.371 g/mL.
In the case of `CC(C)C[C@H](N)C(=O)O` [Leucine], the “Aqueous Solubility” value [2] is listed as 2.426 g/100 g.
For `N[C@@H](Cc1c[nH]cn1)C(=O)O` [Histidine], the “Aqueous Solubility” value [2] is given as 4.19 g/100 g and the “Crystal Density” value [1] is given as 1.412 g/mL.
For `NCC(=O)O` [Glycine], the “Crystal Density” value [1] is listed as 1.598 g/mL.
In the case of `N[C@@H](CCC(=O)O)C(=O)O` [Glutamic Acid], the “Crystal Density” value [1] is given as 1.566 g/mL.
In the case of `N=C(N)NCCC[C@H](N)C(=O)O` [Arginine], the “Crystal Density” value [1] is given as 1.325 g/mL.
In the case of `N[C@@H](CS)C(=O)O` [Cysteine], the “Aqueous Solubility” value [2] is listed as 28 g/100 g and the “Crystal Density” value [1] is listed as 1.495 g/mL.
For `N[C@@H](Cc1ccccc1)C(=O)O` [Phenylalanine], the “Aqueous Solubility” value [2] is given as 2.965 g/100 g and the “Crystal Density” value [1] is given as 1.315 g/mL.
For `NC(=O)CC[C@H](N)C(=O)O` [Glutamine], the “Aqueous Solubility” value [2] is given as 2.5 g/100 g.
For `NC(=O)C[C@H](N)C(=O)O` [Asparagine], the “Aqueous Solubility” value [2] is listed as 3.53 g/100 g.
For `N[C@@H](CC(=O)O)C(=O)O` [Aspartic Acid], the “Crystal Density” value [1] is listed as 1.636 g/mL.
In the case of `C[C@@H](O)[C@H](N)C(=O)O` [Threonine], the “Crystal Density” value [1] is given as 1.499 g/mL.
For `N[C@@H](CO)C(=O)O` [Serine], the “Crystal Density” value [1] is given as 1.582 g/mL.
In the case of `CC(C)[C@H](N)C(=O)O` [Valine], the “Aqueous Solubility” value [2] is listed as 8.85 g/100 g and the “Crystal Density” value [1] is listed as 1.267 g/mL.
In the case of `N[C@@H](Cc1ccc(O)cc1)C(=O)O` [Tyrosine], the “Crystal Density” value [1] is listed as 1.403 g/mL.
